# Reference: US11007385B2, “Use of cellular extracts for skin rejuvenation” (Regenics AS, priority 2012, dated 2021)
# Values joined by “and” are separate entries in the source; they are usually repeats but may differ in a detail not shown here. Identical values can stand only once.
# Columns and labels:
# [1] = test system: human skin fibroblasts (hSF); assay: Collagen secretion from human skin fibroblasts (Biocolor Sircol collagen assay); type: cell-based; settings: for Collagen Abs / Collagen/cell / Coll/cell % change: 8 days
# Method: LEX 42 and different concentrations of retinoic acid (0.01M and 0.1M) are applied to fibroblasts (HsF cells) in vitro and collagen production and secretion is measured. Briefly, on day 0, fibroblasts are seeded in 25 cm^2 cell culture flasks at a density of 2.8×10^5 cells per flask. On day 1, the culture media is replaced with fresh culture media supplemented with 0.5% LEX, 0.01M RA, or 0.1M RA. Control cells are grown with cell culture medium without LEX or RA. The cultures are continued for seven days, with a media (LEX/RA/control) change at day 4. On day 8, the cells are washed 3× with PBS before adding cell culture medium with low serum (1% FBS). On day 9, the culture medium (1.4 ml) is harvested and collagen content assessed using a collagen kit (Biocolor, on eht world wide web at biocolor.co.uk/index.php/assay-kits/sircol-1/). The absorbance is measured with Nanodrop 2000c (Thermo).
# LEX 51 was applied to fibroblasts (HsF cells) in vitro, and collagen production and secretion was assayed. The procedure was as described above, except with the modification of the assay on day 10, were 2 ml of the culture medium is harvested and collagen content assessed using a collagen kit (Biocolor, biocolor.co.uk/index.php/assay-kits/sircol-1/), with the adaptation of isolating collagen from 2 ml of culture medium compared to 1 ml as described in the kit manual. The absorbance is measured at 550 nm (the base line was set to 750 nm) with the Nanodrop 2000 (Thermo)
# Collagen assay from Biocolor was used to analyze the effect of LEX on hSF (fibroblast). This assay measures the produced and secreted collagen from hSF (fibroblasts). The measurements from un-stimulated control was compared to LEX stimulated hSF (fibroblasts) and noted as fold induction.
# The level of collagen was measured after 8 days of treatment with 0% or 0.5% reconstituted freeze dried salmon egg extract I in complete growth medium supplemented with 10% FBS. Ascorbic acid (1 μg/ml) and 0.5% salmon egg extract I was used as positive controls.
# [2] = test system: human skin fibroblasts (hSF); assay: Proliferation / cell number of human skin fibroblasts; type: cell-based; set-up: increase in cell number: unit not given here; settings: 8 days; for Cell % change: vs control
smiles,measurement,setting,value
"CC1=C(/C=C/C(C)=C/C=C/C(C)=C/C(=O)O)C(C)(C)CCC1 [RA, retinoic acid]",Collagen Abs,[1]; 0.01 μM RA,0.046
same,Collagen/cell,[1]; 0.01 μM RA,4.7925E−08
same,Coll/cell % change,"[1]; 0.01 μM RA, vs control",−16.5%
same,Collagen Abs,[1]; 0.1 μM RA,0.046
same,Collagen/cell,[1]; 0.1 μM RA,5.077E−08
same,Coll/cell % change,"[1]; 0.1 μM RA, vs control",−11.5%
same,decrease of collagen per cell,"[1]; 0.1 μM RA, vs control",11.5%
same,decrease of collagen produced per cell,"[1]; 0.01M RA, vs control",16.5%
same,fold change of collagen produced per cell compared to control cultures,"[1]; RA cultures (0.01M and 0.1M), eight days",0.84 and 0.89
same,final # of cells,[2]; 0.01 μM RA,959833
same,Cell % change,[2]; 0.01 μM RA,10.1%
same,final # of cells,[2]; 0.1 μM RA,906000
same,Cell % change,[2]; 0.1 μM RA,3.9%
same,increase in cell number,[2]; 0.01M RA,3.99
same,increase in cell number compared to control,[2]; 0.1M RA,10%
